Test system: K12877-001-R-J1-PDC complex spheroid viability
Assay: Anticancer human tumor K12877-001-R-J1-PDC patient-derived lung adenocarcinoma cell line growth inhibition [RAS]
Conditions: for IC50: curve of first compound; for viability, T/C: stronger effect = lower value
Summary of the method: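 Agents were tested in combination matrices in half-log decrements from a top concentration at or near clinical Cmax (10 microM if undetermined). Targets were multi-cell spheroids of tumour lines plus HUVEC and MSC stromal cells.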
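Note: spheroids exposed to agents for one week before readout.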
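Throughout, for viability, T/C: tumour cells co-cultured with HUVEC and mesenchymal stem cells in spheroids.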

`CC1(O)CCCC1n1c(=O)c(C(F)F)cc2cnc(NC3CCN(S(C)(=O)=O)CC3)nc21` (configuration not stated) + C#Cc1c(F)ccc2cc(O)cc(-c3ncc4c(N5CC6CCC(C5)N6)nc(OCC56CCCN5CC(F)C6)nc4c3F)c12 gave an IC50 (second compound 0.0316 µM) of 3.31 µM, an IC50 (second compound 0.1 µM) of 3.06 µM and an IC50 (second compound 0.316 µM) of 3.92 µM. The IC50 (second compound 1 µM) was 3.97 µM, the IC50 (second compound 3.16 µM) was 4.16 µM and the IC50 (second compound 10 µM) was 3.48 µM. It also gave a viability, T/C (second compound 0.0316 µM, first compound 0.0316 µM) of 98.5%, a viability, T/C (second compound 0.0316 µM, first compound 0.1 µM) of 115% and a viability, T/C (second compound 0.0316 µM, first compound 0.316 µM) of 77.2%. For the same compound, the viability, T/C (second compound 0.0316 µM, first compound 1 µM) was 72.1%, the viability, T/C (second compound 0.0316 µM, first compound 3.16 µM) was 60.9% and the viability, T/C (second compound 0.0316 µM, first compound 10 µM) was 3.3%. It also gave a viability, T/C (second compound 0.1 µM, first compound 0.0316 µM) of 112%, a viability, T/C (second compound 0.1 µM, first compound 0.1 µM) of 115% and a viability, T/C (second compound 0.1 µM, first compound 0.316 µM) of 87.7%. It also gave a viability, T/C (second compound 0.1 µM, first compound 1 µM) of 66%, a viability, T/C (second compound 0.1 µM, first compound 3.16 µM) of 62.7% and a viability, T/C (second compound 0.1 µM, first compound 10 µM) of 3.47%. It also gave a viability, T/C (second compound 0.316 µM, first compound 0.0316 µM) of 119%, a viability, T/C (second compound 0.316 µM, first compound 0.1 µM) of 104% and a viability, T/C (second compound 0.316 µM, first compound 0.316 µM) of 85.3%. For the same compound, the viability, T/C (second compound 0.316 µM, first compound 1 µM) was 81.1%, the viability, T/C (second compound 0.316 µM, first compound 3.16 µM) was 72.3% and the viability, T/C (second compound 0.316 µM, first compound 10 µM) was 3.03%. The viability, T/C (second compound 1 µM, first compound 0.0316 µM) was 106%, the viability, T/C (second compound 1 µM, first compound 0.1 µM) was 106% and the viability, T/C (second compound 1 µM, first compound 0.316 µM) was 84.7%. It also gave a viability, T/C (second compound 1 µM, first compound 1 µM) of 83%, a viability, T/C (second compound 1 µM, first compound 3.16 µM) of 67.2% and a viability, T/C (second compound 1 µM, first compound 10 µM) of 3.27%. It also gave a viability, T/C (second compound 3.16 µM, first compound 0.0316 µM) of 120%, a viability, T/C (second compound 3.16 µM, first compound 0.1 µM) of 93.1% and a viability, T/C (second compound 3.16 µM, first compound 0.316 µM) of 93.3%. For the same compound, the viability, T/C (second compound 3.16 µM, first compound 1 µM) was 80%, the viability, T/C (second compound 3.16 µM, first compound 3.16 µM) was 74.1% and the viability, T/C (second compound 3.16 µM, first compound 10 µM) was 3.16%. The viability, T/C (second compound 10 µM, first compound 0.0316 µM) was 92%, the viability, T/C (second compound 10 µM, first compound 0.1 µM) was 87% and the viability, T/C (second compound 10 µM, first compound 0.316 µM) was 71.6%. The viability, T/C (second compound 10 µM, first compound 1 µM) was 76.9%, the viability, T/C (second compound 10 µM, first compound 3.16 µM) was 56.3% and the viability, T/C (second compound 10 µM, first compound 10 µM) was 2.77%.

— PubChem BioAssay AID2060894 (Molecular Pharmacology Branch, DTP, NCI, 2025)
